Where two headings read alike, the source gives them in different places.
Legend:
[1] = Solubility test (UV-vis calibration curves, maximum solubility); conditions: organic solvent or mixture, thermodynamic from solid
[2] = Rotating disk electrode LSV, diffusion coefficient (Levich equation); format: physicochemical
Procedure: To measure diffusion coefficient (D), rotating disk electrode (RDE; ALS Co., Ltd) measurements were conducted with the same three-electrode cells. […] Limited mass-transport provides a current plateau (iL) of redox processes, which is linearly proportional to the square root of the rotating rates (ω^1/2). The diffusion coefficient (D) was calculated by plotting IL as a function of ω^1/2 and through the Levich equation (equation S1). iL=0.620nFAD^2/3ω^1/2η^−1/6Co (equation S1)
where IL is the limiting current (A cm^−2), n is the number of electrons transferred during the redox reaction, F is the Faraday's constant (96485 C mol^−1), A is the area of the electrode (0.0707 cm^2), D is the diffusion coefficient (cm^2 […]), ω is the angular rotation rate (rad s^−1), η is the kinematic viscosity (0.00442 cm^2 s^−1, referred to 0.1 M TBAPF6/MeCN), and Co is the concentration of the sample chemical.

[3] = Electron-transfer rate from CV curves (Nicholson method); format: physicochemical
Procedure: The electron-transfer rate (k^0) was calculated from CV curves and using the Nicholson method(equation S2).
where k^o is the electron-transfer constant (cm/s), D is the diffusion coefficient estimated from the above RDE studies, R is the gas constant (8.314 J K^−1 mol^−1), T is the temperature (298 K), v is the scan rate of the CVs (mV s^−1).
The Ψ value was obtained by Kingler and Kochi relation (equation S3).
where ΔEp is the peak-to-peak potential for the corresponding reduction or oxidation event.

[4] = Cyclic voltammetry (CV) in three-electrode cells; format: physicochemical; conditions: for E^o′ / Formal potential (E^o′): 4 mM in 0.1 M TBATFSI/MeCN; for Formal potential (E^o′): CV; for peak-to-peak potential difference (ΔEp): maintained for 100 CV cycles; for anodic-to-cathodic peak current ratio (Ipa/Ipc): preserved during 100 CV cycles
Procedure: All electrochemical examinations were carried out using a Biologic VMP3 electrochemical workstation in an Ar-filled glove box (MOTek, negligible O2 and H2O, tested by the ketyl solution).
Cyclic voltammetry (CV) was conducted in three-electrode cells comprised of glassy carbon (GC; diameter (d)=3 mm) as the working electrode (WE), a platinum wire as the counter electrode (CE), and a leak-free Ag/AgCl as the reference electrode (RE). The GC electrodes were polished using alumina slurry before testing (ALS Co., Ltd).
After CV analysis, ferrocene (Fc, ferrocene, 98%, Sigma-Aldrich) was added to the cell to measure its redox potential, and the measured sample potential was converted to the Fc/Fc^+.

[5] = expected from the permeability
[6] = Radical stability, UV-Vis time-dependent concentration decay; format: physicochemical; conditions: for time-dependent concentration decay of the radical: in 0.5 M TBATFSI/MeCN
From the text: FIG. 10—Radical stability of TMAP-BTP^·+ and BTP^·. (a-b) UV-Vis spectra of (a) TMAP-BTP^·+ and (b) BTP^· in 0.5 M TBATFSI/MeCN. (c-d) Calculated time-dependent concentration decay of (c) TMAP-BTP^·+ (0.22%/day) and (d) BTP (0.63%/day). Better stability of TMAP-BTP^·+ than BTP^· is presumably attributed to the cationic TMAP groups, which repel the redox molecules and prevent chemical reactions.

[7] = 0.5 M TBATFSI in MeCN, Solubility 0.5M TBATFSI/MeCN (M), electrolyte solution 0.5M TBATFSI/MeCN
[8] = 0.5 M TBATFSI in MeCN, maximum solubility in electrolyte solution, 0.5 M TBATFSI/MeCN
[9] = MeCN, Solubility MeCN (M), in MeCN
[10] = c1, first cathodic event (single value for BTMAP-Fc, oxidation process)
[11] = 1st event (single value for BTMAP-Fc), after 100 cycles (in parentheses)
[12] = 1st event (single value for BTMAP-Fc), initial
[13] = 1st redox event (single value for BTMAP-Fc)
[14] = 2nd event, after 100 cycles (in parentheses)
[15] = first redox event (single event for BTMAP-Fc)

solubility [1, 7] | solubility [1, 8] | solubility [1, 9] | D (diffusion coefficient) [2, 10] | D (diffusion coefficient) ([2]; c2, second cathodic event) | k^o (electron-transfer constant) [3, 10] | k^o (electron-transfer constant) ([3]; c2, second cathodic event) | Ipa/Ipc @50 mV s^−1 [4, 11] | ΔEp [4, 11] | Ipa/Ipc @50 mV s^−1 [4, 12] | ΔEp [4, 12] | E^o′ [4, 13] | Ipa/Ipc @50 mV s^−1 [4, 14] | ΔEp [4, 14] | Ipa/Ipc @50 mV s^−1 ([4]; 2nd event, initial) | ΔEp ([4]; 2nd event, initial) | E^o′ ([4]; 2nd redox event) | Formal potential (E^o′) [4, 15] | peak-to-peak potential difference (ΔEp) [4] | anodic-to-cathodic peak current ratio (Ipa/Ipc) [4] | also measured | Compound
0.47 M | 0.47 M | 1 M | c1 = 3.71 X10^−6 cm^2 s^−1 | c2 = 3.32 X10^−6 cm^2 s^−1 | c1 = 0.086 cm s^−1 | c2 = 0.090 cm s^−1 | (0.99) | 1st = 99 (99) mV | 1st = 1.01 | 1st = 99 (99) mV | 1st = −1.21 V vs. Fc/Fc^+ | (0.87) | 84 mV | 2nd = 0.95 | 93 mV | 2nd = −1.90 V vs. Fc/Fc^+ | −1.21 V vs. Fc/Fc^+ | ~99 mV | 1.01 | Formal potential (E^o′) ([4]; second redox event): −1.90 V vs. Fc/Fc^+ | C[n+]1ccc(-c2nc3ccccc3s2)cc1 [BTP^+·TFSI^−, 4-(benzo[d]thiazol-2-yl)-1-methylpyridin-1-ium bistriflimide]
 |  |  |  |  |  |  |  |  |  |  |  |  |  |  |  |  | −1.19 V vs. Fc/Fc^+ | 105 mV | close to unity | time required for 10% decay associated with the crossover [5]: 0.37 year; time required for 10% decay associated with the crossover ([5]; listed as TMAP-BTP^·+): 0.094 year; time the reduced form remained stable in the electrolyte solution ([6]; electrolyte solution): 4 days; time-dependent concentration decay of the radical [6]: 0.22 %/day; diffusion coefficient (D) ([2]; 0.1 M TBATFSI/MeCN): 1.91×10^−6 cm^2 s^−1; electron-transfer constant (k^o) ([3]; 0.1 M TBATFSI/MeCN): ~0.1 cm/s; Formal potential (E^o′) ([4]; second redox event): −1.87 V vs. Fc/Fc^+ | C[N+](C)(C)CCC[n+]1ccc(-c2nc3ccccc3s2)cc1 [TMAP-BTP^2+]
 |  |  |  |  |  |  |  |  |  |  |  |  |  |  |  |  |  |  |  | time required for 10% decay associated with the crossover [5]: 0.047 year; time required for 10% decay associated with the crossover ([5]; listed as BTP^·): 0.0065 year; time-dependent concentration decay of the radical [6]: 0.63 %/day; cyclability in the CV profile ([4]; 100 CV cycles, FIGS. 6 and 7): excellent cyclability | C[n+]1ccc(-c2nc3ccccc3s2)cc1 [BTP^+]
0.34 M | 0.34 M | 0.89 M | c1 = 1.91 X10^−6 cm^2 s^−1 | c2 = 1.91 X10^−6 cm^2 s^−1 | c1 = 0.114 cm s^−1 | c2 = 0.124 cm s^−1 | (0.97) | (105) mV | 1st = 0.97 | 1st = 105 mV | 1st = −1.19 V vs. Fc/Fc^+ | (1.18) | (85) mV | 2nd = 1.08 | 2nd = 94 mV | 2nd = −1.87 V vs. Fc/Fc^+ |  |  |  |  | C[N+](C)(C)CCC[n+]1ccc(-c2nc3ccccc3s2)cc1 [TMAP-BTP^2+·2TFSI^−, 4-(benzo[d]thiazol-2-yl)-1-(3-(trimethylammonio)propyl)pyridin-1-ium bistriflimide]

From US12643893B2, “Heteroaryl-pyridinium compound and redox flow battery comprising the same” (Korea Advanced Institute of Science and Technology, priority 2021, dated 2026)
